# Where two headings read alike, the source gives them in different places.
# Columns and labels:
# [1] = cited from earlier work
# Fmr1 knock-out mice [2] = assay: Hyponeophagia / anxiety in Fmr1 knock-out mice; type: in vivo; design: key: X indicates failure to ameliorate the phenotype; Y reversed the phenotype; details: repeat experiment, 15 days
# Description: (§1) Fmr1 knock-out mice (n=10) were orally administered 10 mg/kg/day or 100 mg/kg/day belumosudil or vehicle (BID) for 15 days. Control groups included wild type mice and knock out mice with vehicle. Mice treated with 100 mg/kg belumosudil ameliorated the following behavioral phenotypes: open field/hyperactivity, self-grooming/stereotypy, hyponeophagia/anxiety, nesting/test of daily living, 3-chamber social novelty/sociability; resident intruder and fear conditioning.
# (§2) The experiment was repeated where knock out mice received belumosudil at 20 mg/kg/day, 60 mg/kg/day and 100 mg/kg/day (BID) for 15 days. One group of knock out mice received 10 mg/kg/day belumosudil in combination with 10 mg/kg/day minocycline for 15 days. Control groups included wild type mice and knock out mice with vehicle. The results are set forth below, where X indicates failure to ameliorate the phenotype and Y reversed the phenotype: […]
# Fmr1 knock-out mice [3] = assay: Self-grooming / stereotypy in Fmr1 knock-out mice; type: in vivo; design: key: X indicates failure to ameliorate the phenotype; Y reversed the phenotype; details: repeat experiment, 15 days
# Description: as §1, §2
# Fmr1 knock-out mice [4] = assay: Novel object recognition / cognition in Fmr1 knock-out mice; type: in vivo; design: key: X indicates failure to ameliorate the phenotype; Y reversed the phenotype; details: repeat experiment, 15 days
# Description: as §1, §2
# Fmr1 knock-out mice [5] = assay: Fear conditioning in Fmr1 knock-out mice; type: in vivo; design: key: X indicates failure to ameliorate the phenotype; Y reversed the phenotype; details: repeat experiment, 15 days
# Description: as §1, §2
# Fmr1 knock-out mice [6] = assay: Nesting / test of daily living in Fmr1 knock-out mice; type: in vivo; design: key: X indicates failure to ameliorate the phenotype; Y reversed the phenotype; details: repeat experiment, 15 days
# Description: as §1, §2
# Fmr1 knock-out mice [7] = assay: Resident intruder in Fmr1 knock-out mice; type: in vivo; design: key: X indicates failure to ameliorate the phenotype; Y reversed the phenotype; details: repeat experiment, 15 days
# Description: as §1, §2
# Fmr1 knock-out mice [8] = assay: 3-chamber social novelty / sociability in Fmr1 knock-out mice; type: in vivo; design: key: X indicates failure to ameliorate the phenotype; Y reversed the phenotype; details: repeat experiment, 15 days
# Description: as §1, §2
# Fmr1 knock-out mice [9] = assay: Open field / hyperactivity in Fmr1 knock-out mice; type: in vivo; design: key: X indicates failure to ameliorate the phenotype; Y reversed the phenotype; details: repeat experiment, 15 days
# Description: as §1, §2
# [10] = belumosudil 100 mg/kg/day (BID)
smiles,measurement,setting,value
CC(C)NC(=O)COc1cccc(-c2nc(Nc3ccc4[nH]ncc4c3)c3ccccc3n2)c1 [belumosudil],AE: cough,[1]; 200 mg once daily (QD) arm,18
same,AE: diarrhea,[1]; 200 mg once daily (QD) arm,24%
same,AE: dyspnea,[1]; 200 mg once daily (QD) arm,20%
same,AE: edema,[1]; 200 mg once daily (QD) arm,24%
same,AE: fatigue,[1]; 200 mg once daily (QD) arm,30%
same,AE: liver related investigations,[1]; 200 mg once daily (QD) arm,20%
same,AE: nausea,[1]; 200 mg once daily (QD) arm,23%
same,Serious AE: nausea,[1]; 200 mg once daily (QD) arm,3%
same,Serious AE: pneumonia,[1]; 200 mg once daily (QD) arm,3%
same,Serious AE: pyrexia,[1]; 200 mg once daily (QD) arm,5%
same,Serious AE: vomiting,[1]; 200 mg once daily (QD) arm,3%
same,AE: cough,[1]; 200 mg twice daily (BID) arm,14%
same,AE: diarrhea,[1]; 200 mg twice daily (BID) arm,18%
same,AE: dyspnea,[1]; 200 mg twice daily (BID) arm,12%
same,AE: edema,[1]; 200 mg twice daily (BID) arm,15%
same,AE: fatigue,[1]; 200 mg twice daily (BID) arm,18%
same,AE: liver related investigations,[1]; 200 mg twice daily (BID) arm,23%
same,AE: nausea,[1]; 200 mg twice daily (BID) arm,20%
same,Serious AE: nausea,[1]; 200 mg twice daily (BID) arm,2%
same,Serious AE: pneumonia,[1]; 200 mg twice daily (BID) arm,3%
same,Serious AE: pyrexia,[1]; 200 mg twice daily (BID) arm,0
same,Serious AE: vomiting,[1]; 200 mg twice daily (BID) arm,2%
same,safety and efficacy in clinical trial,"[1]; 132 patients, 200 mg QD or 200 mg BID",safe and efficacious
same,Hyponeophagia: Anxiety,Fmr1 knock-out mice [2]; belumosudil 20 mg/kg/day (BID),X
same,Hyponeophagia: Anxiety,Fmr1 knock-out mice [2]; belumosudil 60 mg/kg/day (BID),X
same,Hyponeophagia: Anxiety,Fmr1 knock-out mice [2]; [10],Y
same,Self-Grooming: Stereotypy,Fmr1 knock-out mice [3]; belumosudil 20 mg/kg/day (BID),X
same,Self-Grooming: Stereotypy,Fmr1 knock-out mice [3]; belumosudil 60 mg/kg/day (BID),X
same,Self-Grooming: Stereotypy,Fmr1 knock-out mice [3]; [10],Y
same,Novel Object Recognition: Cognition,Fmr1 knock-out mice [4]; belumosudil 20 mg/kg/day (BID),X
same,Novel Object Recognition: Cognition,Fmr1 knock-out mice [4]; belumosudil 60 mg/kg/day (BID),X
same,Novel Object Recognition: Cognition,Fmr1 knock-out mice [4]; [10],X
same,Fear Conditioning,Fmr1 knock-out mice [5]; belumosudil 20 mg/kg/day (BID),X
same,Fear Conditioning,Fmr1 knock-out mice [5]; belumosudil 60 mg/kg/day (BID),Y
same,Fear Conditioning,Fmr1 knock-out mice [5]; [10],Y
same,Nesting: Test of Daily Living,Fmr1 knock-out mice [6]; belumosudil 20 mg/kg/day (BID),Y
same,Nesting: Test of Daily Living,Fmr1 knock-out mice [6]; belumosudil 60 mg/kg/day (BID),Y
same,Nesting: Test of Daily Living,Fmr1 knock-out mice [6]; [10],Y
same,Resident Intruder,Fmr1 knock-out mice [7]; belumosudil 20 mg/kg/day (BID),X
same,Resident Intruder,Fmr1 knock-out mice [7]; belumosudil 60 mg/kg/day (BID),Y
same,Resident Intruder,Fmr1 knock-out mice [7]; [10],Y
same,3 Chamber Social Novelty: Sociability,Fmr1 knock-out mice [8]; belumosudil 20 mg/kg/day (BID),X
same,3 Chamber Social Novelty: Sociability,Fmr1 knock-out mice [8]; belumosudil 60 mg/kg/day (BID),X
same,3 Chamber Social Novelty: Sociability,Fmr1 knock-out mice [8]; [10],Y
same,Open Field: Hyperactivity,Fmr1 knock-out mice [9]; belumosudil 20 mg/kg/day (BID),X
same,Open Field: Hyperactivity,Fmr1 knock-out mice [9]; belumosudil 60 mg/kg/day (BID),X
same,Open Field: Hyperactivity,Fmr1 knock-out mice [9]; [10],Y

# Source: patent US20240342175A1, “Compositions and Methods for Treating Spinal Cord Injury and Synaptic Dysfunction” (priority 2021, published 2024)
